Test results reported in publication PMC9016878 (ACS Omega, 2022).

Legend:
[1] = biological target: α-glucosidase from Saccharomyces cerevisiae; assay: α-glucosidase inhibition; type: biochemical; settings: read-out: Inhibitory activity (IC50) on α-glucosidase; mean ± SD; pNPG substrate, pH 6.8, 37 °C
[2] = biological target: T1, porcine pancreatic amylase (Sus scrofa, UniProt P00690); assay: biochemical
T1 sequence (P00690 16-511): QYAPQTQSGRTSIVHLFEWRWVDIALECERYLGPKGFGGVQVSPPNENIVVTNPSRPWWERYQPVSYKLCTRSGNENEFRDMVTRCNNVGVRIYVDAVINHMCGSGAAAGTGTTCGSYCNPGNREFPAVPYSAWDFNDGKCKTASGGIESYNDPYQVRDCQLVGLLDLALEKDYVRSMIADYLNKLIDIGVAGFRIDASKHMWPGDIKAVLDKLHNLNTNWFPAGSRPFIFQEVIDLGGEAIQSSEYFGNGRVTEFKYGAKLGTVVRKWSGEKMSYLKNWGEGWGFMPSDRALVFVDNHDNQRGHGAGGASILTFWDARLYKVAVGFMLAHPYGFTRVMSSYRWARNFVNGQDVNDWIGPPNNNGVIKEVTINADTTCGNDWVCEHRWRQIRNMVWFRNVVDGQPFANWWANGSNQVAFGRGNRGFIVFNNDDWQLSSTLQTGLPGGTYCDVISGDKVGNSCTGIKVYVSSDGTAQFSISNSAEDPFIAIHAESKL

[3] = biological target: T2, lipase from porcine pancreas (Sus scrofa, UniProt P00591); assay: pancreatic lipase inhibition; type: biochemical
T2 sequence (P00591 1-450): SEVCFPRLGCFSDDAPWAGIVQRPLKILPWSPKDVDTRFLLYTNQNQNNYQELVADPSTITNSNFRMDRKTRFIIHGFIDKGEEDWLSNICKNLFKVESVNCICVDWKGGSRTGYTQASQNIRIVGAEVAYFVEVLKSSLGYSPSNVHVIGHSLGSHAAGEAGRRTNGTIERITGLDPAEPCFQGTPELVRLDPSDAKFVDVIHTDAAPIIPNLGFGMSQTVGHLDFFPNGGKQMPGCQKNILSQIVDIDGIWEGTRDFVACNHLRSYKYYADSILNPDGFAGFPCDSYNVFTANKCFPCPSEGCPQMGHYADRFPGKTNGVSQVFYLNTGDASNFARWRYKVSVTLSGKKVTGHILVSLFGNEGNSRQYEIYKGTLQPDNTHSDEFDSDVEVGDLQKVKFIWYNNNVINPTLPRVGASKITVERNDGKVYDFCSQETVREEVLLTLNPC

IC50 [1] [µM]	IC50 [2] [µM]	IC50 [3] [µM]	SMILES
192 ± 13.8			C[C@@H]1CC[C@]2(C(=O)O)CC[C@]3(C)C(=CC[C@@H]4[C@@]5(C)[C@H](O)C(=O)[C@H](O)C(C)(C)[C@@H]5CC[C@]43C)[C@@H]2[C@]1(C)O [compound 7, 1-hydroxy-2-oxopomolic acid]
85.5 ± 6.87	142 ± 6.15	458 ± 72.8	C[C@@H]1CC[C@]2(C(=O)O)CC[C@]3(C)C(=CC[C@@H]4[C@@]5(C)CC[C@H](O)C(C)(C)[C@@H]5CC[C@]43C)[C@@H]2[C@]1(C)O [compound 13, pomolic acid]
	113 ± 3.51		CC[C@H](CC[C@@H](C)[C@H]1CC[C@H]2[C@@H]3CC=C4C[C@@H](O[C@@H]5O[C@H](CO)[C@@H](O)[C@H](O)[C@H]5O)CC[C@]4(C)[C@H]3CC[C@]12C)C(C)C [compound 14, β-sitosterol glucoside]
